ChEMBL document CHEMBL2029220, “Oxaphosphinanes: new therapeutic perspectives for glioblastoma” (J Med Chem, 2012)
The source made the active and inactive calls. The rule behind the calls is not given here.

What was measured:
Huh-7 [1] = assay: Antiproliferative activity against human HuH7 cells at 1 uM after 48 hrs by MTT assay relative to control; assay type: functional
MDA-MB-435 [2] = assay: Antiproliferative activity against human MDA-MB-435 cells after 48 hrs by MTT assay; assay type: functional, cell-based; conditions: MDA-MB-435, 48 h
A-431 [3] = assay: Antiproliferative activity against human A431 cells after 48 hrs by MTT assay; assay type: functional, cell-based; conditions: A-431, 48 h
C6 [4] = assay: Cytotoxicity against rat C6 cells assessed as decrease in cell index at 50 uM after 2 hrs; assay type: functional, cell-based
C6 [5] = assay: Antiproliferative activity against rat C6 cells after 48 hrs by MTT assay; assay type: functional, cell-based; conditions: C6, 48 h
C6 [6] = assay: Cytotoxicity against rat C6 cells at 10 uM after 1 hr by LDH Assay; assay type: functional, cell-based
Caco-2 [7] = assay: Antiproliferative activity against human Caco2 cells at 10 uM after 48 hrs by MTT assay relative to control; assay type: functional
Caco-2 [8] = assay: Antiproliferative activity against human Caco2 cells at 1 uM after 48 hrs by MTT assay relative to control; assay type: functional
Caco-2 [9] = assay: Antiproliferative activity against human Caco2 cells assessed as higher lowest toxic concentration after 48 hrs by MTT assay relative to control; assay type: functional
C6 [10] = assay: Antiproliferative activity against rat C6 cells at 0.1 to 100 uM after 48 hrs by neutral red incorporation assay; assay type: functional, cell-based
DU-145 [11] = assay: Antiproliferative activity against human DU145 cells assessed as higher lowest toxic concentration after 48 hrs by MTT assay relative to control; assay type: functional
B16-F10 [12] = assay: Antiproliferative activity against mouse B16F10 cells at 10 uM after 48 hrs by MTT assay relative to control; assay type: functional
SNB-75 = assay: Antiproliferative activity against human SNB75 cells at 10 uM after 24 hrs by SRB assay; assay type: functional, cell-based
B16-F10 [13] = assay: Antiproliferative activity against mouse B16F10 cells at 1 uM after 48 hrs by MTT assay relative to control; assay type: functional
[14] = Cytotoxicity against mouse astrocytes assessed as decrease in cell viability at 1 to 100 uM after 48 hrs by neutral red incorporation assay; assay type: cell-based; conditions: astrocyte
MDA-MB-231 [15] = assay: Antiproliferative activity against human MDA-MB-231 cells assessed as higher lowest toxic concentration after 48 hrs by MTT assay relative to control; assay type: functional
DU-145 [16] = assay: Antiproliferative activity against human DU145 cells at 10 uM after 48 hrs by MTT assay relative to control; assay type: functional
MDA-MB-435 [17] = assay: Antiproliferative activity against human MDA-MB-435 cells at 10 uM after 48 hrs by MTT assay relative to control; assay type: functional
[18] = Cytotoxicity against mouse astrocytes assessed as decrease in cell viability at 1 to 100 uM after 48 hrs by Hoechst 33342 staining; assay type: cell-based; conditions: astrocyte
C6 [19] = assay: Antiproliferative activity against rat C6 cells at 10 uM after 48 hrs by MTT assay relative to control; assay type: functional
C6 [20] = assay: Cytotoxicity against rat C6 cells assessed as decrease in cell index at 1 uM after 3 hrs; assay type: functional, cell-based
SF-295 = assay: Antiproliferative activity against human SF295 cells at 10 uM after 24 hrs by SRB assay; assay type: functional, cell-based
MDA-MB-231 [21] = assay: Antiproliferative activity against human MDA-MB-231 cells at 10 uM after 48 hrs by MTT assay relative to control; assay type: functional
C6 [22] = assay: Antiproliferative activity against rat C6 cells at 1 uM after 48 hrs by MTT assay relative to control; assay type: functional
Huh-7 [23] = assay: Antiproliferative activity against human HuH7 cells assessed as higher lowest toxic concentration after 48 hrs by MTT assay relative to control; assay type: functional
Huh-7 [24] = assay: Antiproliferative activity against human HuH7 cells at 10 uM after 48 hrs by MTT assay relative to control; assay type: functional
Hs-578T = assay: Antiproliferative activity against human Hs 578T cells at 10 uM after 24 hrs by SRB assay; assay type: functional, cell-based
B16-F10 [25] = assay: Antiproliferative activity against mouse B16F10 cells assessed as higher lowest toxic concentration after 48 hrs by MTT assay relative to control; assay type: functional
C6 [26] = assay: Cytotoxicity against rat C6 cells assessed as decrease in cell index at 10 uM after 3 hrs; assay type: functional, cell-based
Huh-7 [27] = assay: Antiproliferative activity against human HuH7 cells after 48 hrs by MTT assay; assay type: functional, cell-based; conditions: Huh-7, 48 h
MDA-MB-435 [28] = assay: Antiproliferative activity against human MDA-MB-435 cells at 1 uM after 48 hrs by MTT assay relative to control; assay type: functional
C6 [29] = assay: Cytotoxicity against rat C6 cells assessed as decrease in cell index at 100 uM after 1 hr; assay type: functional, cell-based
C6 [30] = assay: Cytotoxicity against rat C6 cells assessed as decrease in cell index at 5 uM after 3 hrs; assay type: functional, cell-based
A-431 [31] = assay: Antiproliferative activity against human A431 cells assessed as higher lowest toxic concentration after 48 hrs by MTT assay relative to control; assay type: functional
Caco-2 [32] = assay: Antiproliferative activity against human Caco2 cells after 48 hrs by MTT assay; assay type: functional, cell-based; conditions: Caco-2, 48 h
MDA-MB-435 [33] = assay: Antiproliferative activity against human MDA-MB-435 cells assessed as higher lowest toxic concentration after 48 hrs by MTT assay relative to control; assay type: functional
A-431 [34] = assay: Antiproliferative activity against human A431 cells at 1 uM after 48 hrs by MTT assay relative to control; assay type: functional
A-431 [35] = assay: Antiproliferative activity against human A431 cells at 10 uM after 48 hrs by MTT assay relative to control; assay type: functional
C6 [36] = assay: Antiproliferative activity against rat C6 cells assessed as higher lowest toxic concentration after 48 hrs by MTT assay relative to control; assay type: functional
DU-145 [37] = assay: Antiproliferative activity against human DU145 cells at 1 uM after 48 hrs by MTT assay relative to control; assay type: functional, cell-based
C6 [38] = assay: Cytotoxicity against rat C6 cells assessed as decrease in cell index at 25 uM after 3 hrs; assay type: functional, cell-based
MDA-MB-231 [39] = assay: Antiproliferative activity against human MDA-MB-231 cells at 1 uM after 48 hrs by MTT assay relative to control; assay type: functional
[40] = Cytotoxicity against mouse astrocytes assessed as decrease in cell viability at 1 to 100 uM after 48 hrs by propidium iodide incorporation assay; assay type: cell-based; conditions: astrocyte
B16-F10 [41] = assay: Antiproliferative activity against mouse B16F10 cells after 48 hrs by MTT assay; assay type: functional, cell-based; conditions: B16-F10, 48 h
DU-145 [42] = assay: Antiproliferative activity against human DU145 cells after 48 hrs by MTT assay; assay type: functional, cell-based; conditions: DU-145, 48 h

Work on `O=[P@@]1(c2ccccc2)O[C@H](COCc2ccccc2)[C@@H](OCc2ccccc2)[C@H](OCc2ccccc2)[C@H]1O` yielded an Activity (Huh-7 [1]) of 16%, an EC50 (MDA-MB-435 [2]) of 13.9 µM and an EC50 (A-431 [3]) of 14.5 µM. For the same compound, the Activity (C6 [4]) was “Active”, the EC50 (C6 [5]) was 0.52 µM and the Activity (C6 [6]) was “Active”. It also gave an Activity (Caco-2 [7]) of 43%, an Activity (Caco-2 [8]) of 10% and an Activity (Caco-2 [9]) of 0.5 µM. The Activity (C6 [10]) was “Active”, the Activity (DU-145 [11]) was 5 µM and the Activity (B16-F10 [12]) was 73%. For the same compound, the “growth inhibition (GI)” value (SNB-75) was “Active”, the Activity (B16-F10 [13]) was 25% and the Activity [14] was “Non-toxic”. The Activity (MDA-MB-231 [15]) was 0.1 µM, the Activity (DU-145 [16]) was 40% and the Activity (MDA-MB-435 [17]) was 42%. The Activity [18] was “Non-toxic”, the Activity (C6 [19]) was 82% and the Activity (C6 [20]) was “inactive”. For the same compound, the “growth inhibition (GI)” value (SF-295) was “Active”, the Activity (MDA-MB-231 [21]) was 30% and the Activity (C6 [22]) was 63%. The Activity (Huh-7 [23]) was 0.1 µM, the Activity (Huh-7 [24]) was 22% and the “growth inhibition (GI)” value (Hs-578T) was “Active”. The Activity (B16-F10 [25]) was 0.5 µM, the Activity (C6 [26]) was “inactive” and the EC50 (Huh-7 [27]) was 30 µM. The Activity (MDA-MB-435 [28]) was 22%, the Activity (C6 [29]) was “Active” and the Activity (C6 [30]) was “Active”. The Activity (A-431 [31]) was 0.1 µM, the EC50 (Caco-2 [32]) was 57 µM and the Activity (MDA-MB-435 [33]) was 0.001 µM. For the same compound, the Activity (A-431 [34]) was 18%, the Activity (A-431 [35]) was 32% and the Activity (C6 [36]) was 0.001 µM. For the same compound, the Activity (DU-145 [37]) was “inactive”, the Activity (C6 [38]) was “Active” and the Activity (MDA-MB-231 [39]) was 17%. The Activity [40] was “Non-toxic”, the EC50 (B16-F10 [41]) was 4.9 µM and the EC50 (DU-145 [42]) was 65 µM.
